Data: ChEMBL document CHEMBL5131403, “Synthesis and structure-activity relationship studies of 1,5-isomers of triazole-pyrrolopyrimidine as selective Janus kinase 1 (JAK1) inhibitors” (Bioorg Med Chem Lett, 2022)

Tests used:
[1] = target: T1, Tyrosine-protein kinase JAK1 (Homo sapiens, UniProt P23458); assay: Inhibition of JAK1 (unknown origin) at 1 uM by biochemical assay relative to control
[2] = target: T1, Tyrosine-protein kinase JAK1; assay: Inhibition of JAK1 (unknown origin) by biochemical assay
[3] = target: T2, Tyrosine-protein kinase JAK2 (Homo sapiens, UniProt O60674); assay: Inhibition of JAK2 (unknown origin) at 1 uM by biochemical assay relative to control
T2 sequence (O60674 whole entry): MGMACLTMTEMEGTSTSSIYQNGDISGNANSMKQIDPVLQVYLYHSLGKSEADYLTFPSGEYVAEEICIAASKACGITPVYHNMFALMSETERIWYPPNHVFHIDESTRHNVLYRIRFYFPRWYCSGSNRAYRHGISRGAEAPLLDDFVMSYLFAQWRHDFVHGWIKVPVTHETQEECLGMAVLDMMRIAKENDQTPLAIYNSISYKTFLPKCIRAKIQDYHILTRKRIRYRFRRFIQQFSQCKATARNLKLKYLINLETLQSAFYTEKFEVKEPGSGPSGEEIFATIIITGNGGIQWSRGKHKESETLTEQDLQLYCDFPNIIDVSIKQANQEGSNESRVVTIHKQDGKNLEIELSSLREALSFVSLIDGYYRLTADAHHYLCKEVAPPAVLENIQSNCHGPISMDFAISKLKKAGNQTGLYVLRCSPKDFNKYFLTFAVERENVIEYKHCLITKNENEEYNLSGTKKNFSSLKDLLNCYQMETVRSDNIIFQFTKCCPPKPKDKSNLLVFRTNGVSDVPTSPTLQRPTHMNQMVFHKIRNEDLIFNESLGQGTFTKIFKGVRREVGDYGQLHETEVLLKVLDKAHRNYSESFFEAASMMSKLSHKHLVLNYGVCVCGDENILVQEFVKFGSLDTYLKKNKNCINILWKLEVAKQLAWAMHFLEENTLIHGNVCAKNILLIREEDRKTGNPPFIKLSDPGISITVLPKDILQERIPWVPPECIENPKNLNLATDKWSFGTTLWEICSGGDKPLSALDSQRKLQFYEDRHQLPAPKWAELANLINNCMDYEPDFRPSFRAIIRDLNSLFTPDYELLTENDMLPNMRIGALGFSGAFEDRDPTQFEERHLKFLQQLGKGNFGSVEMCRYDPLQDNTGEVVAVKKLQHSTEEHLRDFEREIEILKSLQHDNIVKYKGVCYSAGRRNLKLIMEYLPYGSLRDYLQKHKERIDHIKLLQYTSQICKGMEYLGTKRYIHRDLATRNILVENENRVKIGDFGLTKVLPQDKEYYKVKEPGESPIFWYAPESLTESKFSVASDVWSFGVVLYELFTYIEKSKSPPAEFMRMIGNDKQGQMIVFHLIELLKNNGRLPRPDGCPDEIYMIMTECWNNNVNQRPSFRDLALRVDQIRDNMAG

[4] = target: T2, Tyrosine-protein kinase JAK2; assay: Inhibition of JAK2 (unknown origin) by biochemical assay
[5] = target: T3, Tyrosine-protein kinase JAK3 (Homo sapiens) (UniProt P52333); assay: Inhibition of JAK3 (unknown origin) at 1 uM by biochemical assay relative to control
T3 sequence (whole entry): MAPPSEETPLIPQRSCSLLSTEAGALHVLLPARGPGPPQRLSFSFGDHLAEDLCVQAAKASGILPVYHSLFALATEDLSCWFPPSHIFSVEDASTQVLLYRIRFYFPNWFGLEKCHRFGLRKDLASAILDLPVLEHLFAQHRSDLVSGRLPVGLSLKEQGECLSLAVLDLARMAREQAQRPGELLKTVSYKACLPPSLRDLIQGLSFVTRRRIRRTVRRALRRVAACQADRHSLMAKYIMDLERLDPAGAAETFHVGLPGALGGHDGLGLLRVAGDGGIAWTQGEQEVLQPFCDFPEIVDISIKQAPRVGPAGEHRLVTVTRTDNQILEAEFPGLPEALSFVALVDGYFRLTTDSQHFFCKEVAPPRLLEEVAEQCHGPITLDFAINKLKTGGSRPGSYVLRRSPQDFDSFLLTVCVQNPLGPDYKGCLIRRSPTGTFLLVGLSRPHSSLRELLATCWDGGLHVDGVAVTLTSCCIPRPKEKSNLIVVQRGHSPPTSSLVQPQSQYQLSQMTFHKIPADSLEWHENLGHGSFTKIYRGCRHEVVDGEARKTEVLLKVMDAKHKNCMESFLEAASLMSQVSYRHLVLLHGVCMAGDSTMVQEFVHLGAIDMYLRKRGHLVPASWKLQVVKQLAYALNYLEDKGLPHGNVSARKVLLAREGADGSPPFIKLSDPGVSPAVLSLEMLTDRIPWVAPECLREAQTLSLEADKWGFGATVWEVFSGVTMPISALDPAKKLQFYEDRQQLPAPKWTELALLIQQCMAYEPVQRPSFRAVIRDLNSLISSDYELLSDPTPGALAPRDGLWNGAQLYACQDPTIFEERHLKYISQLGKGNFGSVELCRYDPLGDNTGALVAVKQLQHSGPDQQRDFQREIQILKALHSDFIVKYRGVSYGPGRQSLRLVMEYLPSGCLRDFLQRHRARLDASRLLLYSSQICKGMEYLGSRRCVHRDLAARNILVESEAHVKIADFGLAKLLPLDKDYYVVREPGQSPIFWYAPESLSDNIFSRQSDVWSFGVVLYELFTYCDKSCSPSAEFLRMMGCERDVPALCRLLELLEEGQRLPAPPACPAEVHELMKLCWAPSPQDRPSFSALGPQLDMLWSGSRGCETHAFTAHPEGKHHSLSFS

[6] = target: Non-receptor tyrosine-protein kinase TYK2 (Homo sapiens) (UniProt P29597); assay: Inhibition of TYK2 (unknown origin) at 1 uM by biochemical assay relative to control
Sequence of Non-receptor tyrosine-protein kinase TYK2 (Homo sapiens) (P29597 whole entry): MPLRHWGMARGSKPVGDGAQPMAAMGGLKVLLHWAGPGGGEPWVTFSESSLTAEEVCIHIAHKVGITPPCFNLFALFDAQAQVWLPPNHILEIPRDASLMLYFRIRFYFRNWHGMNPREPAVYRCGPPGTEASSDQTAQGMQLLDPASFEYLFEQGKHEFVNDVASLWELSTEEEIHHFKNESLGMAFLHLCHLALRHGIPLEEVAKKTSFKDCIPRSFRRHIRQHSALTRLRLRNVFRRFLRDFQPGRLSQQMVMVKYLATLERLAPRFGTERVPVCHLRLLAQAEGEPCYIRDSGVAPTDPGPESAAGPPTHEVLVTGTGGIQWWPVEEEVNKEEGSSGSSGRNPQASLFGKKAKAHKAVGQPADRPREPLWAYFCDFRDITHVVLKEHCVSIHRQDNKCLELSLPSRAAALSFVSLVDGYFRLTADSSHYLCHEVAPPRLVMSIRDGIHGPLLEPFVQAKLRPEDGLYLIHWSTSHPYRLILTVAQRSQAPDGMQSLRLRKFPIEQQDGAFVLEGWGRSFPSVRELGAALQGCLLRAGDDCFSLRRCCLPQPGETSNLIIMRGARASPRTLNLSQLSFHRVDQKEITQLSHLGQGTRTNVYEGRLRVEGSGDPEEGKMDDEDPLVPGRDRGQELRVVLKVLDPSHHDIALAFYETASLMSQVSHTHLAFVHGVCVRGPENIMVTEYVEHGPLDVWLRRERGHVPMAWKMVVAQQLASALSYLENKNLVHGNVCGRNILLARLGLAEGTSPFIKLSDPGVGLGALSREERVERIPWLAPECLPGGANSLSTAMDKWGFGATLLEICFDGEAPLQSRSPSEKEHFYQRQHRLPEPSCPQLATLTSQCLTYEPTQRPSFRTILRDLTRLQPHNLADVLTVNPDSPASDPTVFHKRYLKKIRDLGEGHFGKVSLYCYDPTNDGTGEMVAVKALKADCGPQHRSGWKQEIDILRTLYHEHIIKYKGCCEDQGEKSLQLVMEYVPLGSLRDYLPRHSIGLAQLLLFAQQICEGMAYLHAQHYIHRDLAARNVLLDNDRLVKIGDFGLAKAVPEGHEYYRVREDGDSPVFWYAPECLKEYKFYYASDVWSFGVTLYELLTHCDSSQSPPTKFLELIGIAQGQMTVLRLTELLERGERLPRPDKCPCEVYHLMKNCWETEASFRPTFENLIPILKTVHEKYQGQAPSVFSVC

Homo sapiens [7] = species: Homo sapiens; assay: Selectivity index, ratio of inhibition of JAK1 (unknown origin) to inhibition of JAK2 (unknown origin)
Homo sapiens [8] = species: Homo sapiens; assay: Selectivity index, ratio of inhibition of JAK1 (unknown origin) to inhibition of JAK3 (unknown origin)
Homo sapiens [9] = species: Homo sapiens; assay: Selectivity index, ratio of IC50 for inhibition of JAK2 (unknown origin) to IC50 for inhibition of JAK1 (unknown origin)

T1 sequence (P23458 whole entry): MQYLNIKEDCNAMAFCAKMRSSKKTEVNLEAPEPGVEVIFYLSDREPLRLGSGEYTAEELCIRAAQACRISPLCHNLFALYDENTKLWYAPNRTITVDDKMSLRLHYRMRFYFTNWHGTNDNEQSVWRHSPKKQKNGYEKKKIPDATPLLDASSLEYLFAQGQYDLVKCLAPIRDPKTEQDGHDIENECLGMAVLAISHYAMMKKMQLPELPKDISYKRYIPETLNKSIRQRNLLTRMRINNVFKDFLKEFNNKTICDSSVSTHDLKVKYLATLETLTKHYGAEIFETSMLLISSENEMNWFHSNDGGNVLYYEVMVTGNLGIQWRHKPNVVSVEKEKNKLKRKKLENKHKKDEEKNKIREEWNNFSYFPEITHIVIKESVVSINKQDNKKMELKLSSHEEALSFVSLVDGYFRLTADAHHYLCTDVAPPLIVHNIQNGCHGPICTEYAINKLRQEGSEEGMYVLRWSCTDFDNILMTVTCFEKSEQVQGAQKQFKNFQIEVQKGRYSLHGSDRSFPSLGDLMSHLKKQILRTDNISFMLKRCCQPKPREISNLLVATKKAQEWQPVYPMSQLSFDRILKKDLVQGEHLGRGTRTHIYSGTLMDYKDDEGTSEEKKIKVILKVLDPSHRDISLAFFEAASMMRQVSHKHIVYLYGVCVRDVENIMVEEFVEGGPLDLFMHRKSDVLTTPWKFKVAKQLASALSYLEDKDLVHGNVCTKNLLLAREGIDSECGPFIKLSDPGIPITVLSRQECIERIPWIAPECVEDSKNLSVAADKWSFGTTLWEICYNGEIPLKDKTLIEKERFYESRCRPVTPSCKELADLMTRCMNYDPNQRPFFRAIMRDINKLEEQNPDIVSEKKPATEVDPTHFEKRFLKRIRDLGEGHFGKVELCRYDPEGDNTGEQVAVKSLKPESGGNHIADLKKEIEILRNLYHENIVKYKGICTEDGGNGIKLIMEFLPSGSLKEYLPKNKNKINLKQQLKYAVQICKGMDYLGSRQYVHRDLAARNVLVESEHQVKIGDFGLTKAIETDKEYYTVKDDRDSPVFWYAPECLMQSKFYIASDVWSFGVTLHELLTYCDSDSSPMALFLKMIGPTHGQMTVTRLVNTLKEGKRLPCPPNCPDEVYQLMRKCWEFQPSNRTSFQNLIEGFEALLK

inhibition [1] [%]	IC50 [2] [nM]	inhibition [3] [%]	IC50 [4] [nM]	inhibition [5] [%]	inhibition [6] [%]	Selectivity Index (Homo sapiens [7])	Selectivity Index (Homo sapiens [8])	Ratio IC50 (Homo sapiens [9])	Structure (SMILES)
76.6	386	8	> 10000	20.6	2.7	–	–	–	Cc1c(-c2ncnc3[nH]ccc23)nnn1Cc1ccc(S(C)(=O)=O)cc1
69.3	–	15	–	7.3	–	–	–	–	Cc1c(-c2ncnc3[nH]ccc23)nnn1Cc1ccc(C#N)cc1
61.7	–	49.7	–	52	–	–	–	–	Cc1c(-c2ncnc3[nH]ccc23)nnn1CCCc1ccc(I)cc1
17.3	–	3.7	–	20.3	–	–	–	–	Cc1c(-c2ncnc3[nH]ccc23)nnn1CCc1ccc(OC(F)(F)F)cc1
74	–	10	–	6	–	7.4	12.3	–	Cc1ccc(Cn2nnc(-c3ncnc4[nH]ccc34)c2C)cc1
21.6	–	15	–	3	–	–	–	–	Cc1c(-c2ncnc3[nH]ccc23)nnn1Cc1ccc(C(C)(C)C)cc1
19.3	–	–	–	0	–	–	–	–	Cc1c(-c2ncnc3[nH]ccc23)nnn1Cc1cccc(OC(F)(F)F)c1
54.7	–	19.7	–	–	–	–	–	–	Cc1c(-c2ncnc3[nH]ccc23)nnn1CCc1ccc(I)cc1
86.7	–	32.7	–	-8.7	–	–	–	–	Cc1c(-c2ncnc3[nH]ccc23)nnn1Cc1ccc(C(F)(F)F)cc1
75	–	39	–	14	–	–	–	–	Cc1c(-c2ncnc3[nH]ccc23)nnn1Cc1ccc(F)cc1
94	97	49.3	784	30	61.6	–	–	8	Cc1c(-c2ncnc3[nH]ccc23)nnn1Cc1ccc(Br)cc1
51	–	3	–	5	–	17	10.2	–	COc1ccc(Cn2nnc(-c3ncnc4[nH]ccc34)c2C)cc1
69.5	–	13	–	-3.7	–	–	–	–	Cc1c(-c2ncnc3[nH]ccc23)nnn1Cc1ccc(OC(F)(F)F)cc1
32.7	–	8.7	–	35	–	–	–	–	Cc1c(-c2ncnc3[nH]ccc23)nnn1CCc1ccc(C(F)(F)F)cc1
28	–	14	–	-9	–	–	–	–	Cc1c(-c2ncnc3[nH]ccc23)nnn1Cc1ccccc1
12.5	–	18.7	–	13.3	–	–	–	–	Cc1c(-c2ncnc3[nH]ccc23)nnn1CCc1ccccc1
48	–	10.7	–	11.3	–	5	12.3	–	Cc1c(-c2ncnc3[nH]ccc23)nnn1CCCc1ccccc1
92	107	50	959	36	67	–	–	9	Cc1c(-c2ncnc3[nH]ccc23)nnn1Cc1ccc(Cl)cc1
21.6	–	11.6	–	20.3	–	–	–	–	Cc1c(-c2ncnc3[nH]ccc23)nnn1Cc1ccccc1OC(F)(F)F
94	72	54	839	20.3	41.3	–	–	12	Cc1c(-c2ncnc3[nH]ccc23)nnn1Cc1ccc(I)cc1
12.3	–	–	–	4	–	–	–	–	Cc1ccc(CCn2nnc(-c3ncnc4[nH]ccc34)c2C)cc1
